Source: article PMC10935558, “In vitro and in silico studies reveal antidiabetic properties of arylbenzofurans from the root bark of Morus mesozygia Stapf” (Frontiers in Pharmacology, 2024)
Values joined by “and” are separate entries in the source; they are usually repeats but may differ in a detail not shown here. Equal entries are not always repeated.

Assays:
[1] = target: T1, porcine pancreatic α-amylase (Sus scrofa, UniProt P00690); assay: In-vitro α-amylase inhibition assay; assay type: biochemical; settings: n = 2 independent experiments in duplicate; read-out: α-amylase IC50 (range)
T1 sequence (P00690 16-511): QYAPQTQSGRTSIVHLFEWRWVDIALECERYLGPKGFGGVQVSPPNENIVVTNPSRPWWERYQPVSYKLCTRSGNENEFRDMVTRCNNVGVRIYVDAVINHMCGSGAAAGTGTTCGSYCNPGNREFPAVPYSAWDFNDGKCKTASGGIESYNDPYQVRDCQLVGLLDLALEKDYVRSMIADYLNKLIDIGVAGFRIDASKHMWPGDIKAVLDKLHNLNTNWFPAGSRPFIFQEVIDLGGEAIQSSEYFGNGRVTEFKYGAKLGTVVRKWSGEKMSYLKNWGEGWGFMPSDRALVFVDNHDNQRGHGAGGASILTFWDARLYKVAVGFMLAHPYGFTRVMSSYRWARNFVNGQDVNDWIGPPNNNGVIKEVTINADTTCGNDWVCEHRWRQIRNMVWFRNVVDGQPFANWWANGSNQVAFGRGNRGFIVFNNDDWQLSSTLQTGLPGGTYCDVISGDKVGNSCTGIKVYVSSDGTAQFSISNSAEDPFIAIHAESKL
Method: To this end, moracins, extracts, and fraction stocks were diluted with water to give concentrations of 1,000 and 3,000 μg/mL. Of these dilutions, 15 μL were mixed with 35 µL distilled H2O and 50 μL of porcine pancreatic α-amylase (2.5 U/mL) in 20 mM sodium phosphate buffer containing 6.7 mM NaCl, pH 6.9. Following 10 min pre-incubation at 25°C, 50 μL 1% starch solution that had been cooked for 15 min in the same buffer was added to start the reaction. After 10 min at 25°C, 100 μL of a color reagent (1% 3,5-dinitrosalicylic acid and 30% sodium potassium tartrate in 0.4 M NaOH, all chemicals from Sigma-Aldrich, Taufkirchen, Germany) were added. The mixture was incubated for an additional 5 min at 100 °C and cooled to room temperature before the absorbance was measured at 540 nm by a microplate reader (iEMS Reader MF, MTX Lab Systems, Helsinki, Finland). […] The percentage inhibition of α-amylase was calculated by using the following equation: Inhibition%=AbC−AbCblank−AbS−AbSblank/AbC−AbCblank×100 AbC, absorbance of the control; AbS, absorbance of the sample.
(§1) GraphPad Prism, version 5.0 was used for the statistical analysis of data, which were expressed as mean ± standard deviation. Multiple comparisons of IC50 values were carried out by using one-way ANOVA followed by Tukey’s test.

[2] = target: Saccharomyces cerevisiae α-glucosidase; assay: In-vitro α-glucosidase inhibition assay; assay type: biochemical; settings: for IC50: n = 5 independent experiments in duplicate, read-out: α-glucosidase IC50 (range)
Method: The α-glucosidase activity assay was carried out as described previously ([Günther et al., 2021]). Briefly, 10 mM stock solutions of the arylbenzofurans (1—3) prepared in DMSO were diluted in water. Fifteen µl of these diluted moracin compounds were mixed in 96-well microtest plates (VWR, Darmstadt, Germany) with 105 μL of 0.1 M phosphate buffer, pH 6.8 and 15 μL of a 0.5 U/mL Saccharomyces cerevisiae α-glucosidase solution (Sigma-Aldrich, Taufkirchen, Germany). The final arylbenzofurans concentrations range from 0–200 μM, while the final concentration of the extract and fractions ranges from 100–500 μg/mL. […] Following 5 min pre-incubation at 37°C, the reaction was started with 15 μL of 10 mM p-nitrophenyl-α-D-glucopyranoside (Sigma-Aldrich, Taufkirchen, Germany). After 20 min at 37 °C, 50 μL 2 M Na2CO3 stop solution was added (VWR, Darmstadt, Germany). The absorbance was measured photometrically at 405 nm (iEMS Reader MF). Five independent experiments were performed in duplicate.
as §1

[3] = target: T2, human recombinant DPP4 enzyme (Homo sapiens, UniProt P27487); assay: In-vitro dipeptidyl peptidase-4 (DPP4) inhibition assay (inhibitor screening kit); assay type: biochemical
T2 construct: purchased abcam, Berlin, Germany
T2 sequence (P27487 whole entry): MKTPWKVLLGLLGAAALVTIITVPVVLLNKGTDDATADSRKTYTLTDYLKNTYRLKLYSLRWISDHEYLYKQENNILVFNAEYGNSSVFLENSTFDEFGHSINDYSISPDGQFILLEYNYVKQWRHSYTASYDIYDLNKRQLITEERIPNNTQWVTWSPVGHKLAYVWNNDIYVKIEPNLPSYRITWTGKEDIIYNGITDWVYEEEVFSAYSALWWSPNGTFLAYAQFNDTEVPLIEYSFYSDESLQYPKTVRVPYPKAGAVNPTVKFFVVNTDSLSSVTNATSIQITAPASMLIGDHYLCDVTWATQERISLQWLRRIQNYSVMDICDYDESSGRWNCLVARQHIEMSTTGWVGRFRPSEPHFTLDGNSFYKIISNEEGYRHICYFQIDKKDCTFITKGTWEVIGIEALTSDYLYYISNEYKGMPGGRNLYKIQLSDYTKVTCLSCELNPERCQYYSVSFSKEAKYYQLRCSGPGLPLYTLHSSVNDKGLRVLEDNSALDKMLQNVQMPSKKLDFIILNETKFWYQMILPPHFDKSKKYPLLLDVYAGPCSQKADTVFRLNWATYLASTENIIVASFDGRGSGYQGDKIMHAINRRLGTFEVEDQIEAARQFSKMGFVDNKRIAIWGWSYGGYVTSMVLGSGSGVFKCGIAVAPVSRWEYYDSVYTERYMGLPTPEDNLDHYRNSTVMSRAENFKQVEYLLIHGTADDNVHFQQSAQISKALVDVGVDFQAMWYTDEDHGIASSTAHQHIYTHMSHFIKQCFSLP
Method: The DPP4 inhibitor activities of the three moracins were determined by using the DPP4 inhibitor screening kit following the manufacturer’s instructions (abcam, Berlin, Germany). The established DPP4 inhibitor sitagliptin served as the positive inhibitor control, whereas assay buffer was only used as the control for DPP4 enzyme activity and was set to 100%. 30 μL of assay buffer and 10 μL human recombinant DPP4 enzyme were mixed in 96-well microtiter plates with 10 μL of 0.1- or 1-mM moracin solutions, 1 mM sitagliptin, or assay buffer. Following 10 min pre-incubation at 37°C, 50 μL of substrate solution was added to each well. The fluorescence signal (excitation wavelength of 360 nm, emission wavelength of 465 nm) was measured after 30 min incubation at 37°C (Tecan Infinite 200 micro-plate reader).
as §1, with “test. For the DPP4 inhibition results, a one-way ANOVA followed by Dunnett’s post-hoc test was conducted to compare the means of treatment groups to that of the control group without inhibitor.” for “test.”

[4] = system: protein tyrosine phosphatase 1B (PTP1B); design: method as in Cui et al., 2006; settings: ref Cui et al., 2006; cited from earlier work
[5] = system: chronic hepatitis C virus (HCV) cell; design: method as in Hyun et al., 2007; settings: antiviral assay; ref Hyun et al., 2007; read-out: IC50 against HCV cell; cited from earlier work
H9c2 cells = system: H9c2 cells; design: method as in Zheng et al., 2017; settings: doxorubicin-induced myocardial toxicity in H9c2 cells; ref Zheng et al., 2017; read-out: EC50 cytoprotective effect; cited from earlier work

Q: With `CC(C)(O)CCc1c(O)ccc2cc(-c3cc(O)cc(O)c3)oc12` [Compound 1, 5-(6-hydroxy-7-(3-hydroxy-3-methylbutyl)benzofuran-2-yl)benzene-1,3-diol] as the compound, how does the IC50 [1] read?
A: > 300 µM

Q: And the IC50 [2]?
A: ~17 µM and 16.9 µM

Q: And the “DPP4 inhibition (in words)” value [3]?
A: moderate inhibitors

Q: What about the inhibition at 100 µM ([3]; at 100 μM, read-out: inhibitory activity against DPP4) of the same compound?
A: 15%

Q: Which IC50 [1] does the source give for `CC1(C)Oc2cc3oc(-c4cc(O)cc(O)c4)cc3cc2C[C@H]1O` [Compound 2, Moracin P] here?
A: > 300 µM

Q: And the IC50 [2]?
A: ~17 µM and 16.6 µM

Q: What about the “inhibitory effect against PTP1B (in words)” value [4] of the same compound?
A: marginal inhibitory effect

Q: And the IC50 [5]?
A: 42.9 µM

Q: What about the EC50 (H9c2 cells) of the same compound?
A: 8.8 µM

Q: For `Oc1cc(O)cc(-c2cc3ccc(O)cc3o2)c1` [Compound 3, Moracin M], which IC50 [1] is on record?
A: > 300 µM

Q: What about the “fold less potent than 1 and 2 (α-glucosidase)” value [2] of the same compound?
A: ~2.4 fold

Q: And the IC50 [2]?
A: 40.9 µM

Q: What about the “DPP4 inhibition (in words)” value [3] of the same compound?
A: moderate inhibitors

Q: And the “residual peptidase (DPP4) activity compared to control” value ([3]; at 100 μM)?
A: 62.7%

Q: What about the IC50 [5] of the same compound?
A: > 100 µM
